According to patent publication US20100222349A1, “QUINOLINE DERIVATIVES USED TO TREAT INFLAMMATORY AND ALLERGIC DISEASES” (Glaxo Group Limited, priority 2007, published 2010):

Key:
human H1 receptor [1] = molecular target: T1, human H1 receptor (Homo sapiens, UniProt P35367); assay: Histamine H1 functional antagonist assay: antagonist duration; type: cell-based; conditions: at one or more time points, after washout
T1 construct: expressed in transfected cells
Description: The human H1 receptor is cloned using known procedures described in the literature [Biochem. Biophys. Res. Commun., 201(2):894 (1994)]. Chinese hamster ovary (CHO) cells stably expressing the human H1 receptor are generated according to known procedures described in the literature [Br. J. Pharmacol., 117(6):1071 (1996)].
To determine the antagonist duration, cells are cultured overnight in non-coated black-walled clear bottom 96-well tissue culture plates, are washed with PBS and are incubated with a concentration of antagonist chosen to give an approximate DR in the range 30-300. Following the 30 min antagonist incubation period, the cells are washed two or three times with 200 μl of PBS and then 100 μl Tyrodes buffer is added to each well to initiate antagonist dissociation. Following incubation for predetermined times, typically 30-270 min at 37° C., the cells are then washed again with 200 μl PBS and are incubated with 100 μl Tyrodes buffer containing Brilliant Black, probenecid and Fluo-4 for 45 min at 37° C., as described above. After this period, the cells are challenged with histamine in the FLIPR™ as described above. The dose ratio at each time point is used to determine the fractional H1 receptor occupancy by the following equation: fractional receptor occupancy=(DR-1)/DR. The decrease in receptor occupancy over time approximates to a straight line and is analysed by linear regression. The slope of this straight line fit is used as an index of the dissociation rate of the antagonist. The dose ratios for antagonist treated cells and for antagonist treated and washed cells at each time point are used to calculate a relative dose ratio (rel DR) which is also used as an index of antagonist duration. Antagonists with long duration of action produce rel DR values close to 1, and antagonists with short duration of action produce rel DR values that approaches the dose ratio value obtained for antagonist treatment alone.

histamine H3 receptor = molecular target: T2, histamine H3 receptor (Homo sapiens, UniProt Q9Y5N1); assay: Histamine H3 functional antagonist assay (GTPγS, membranes); type: biochemical; conditions: CHO K1 membranes, [35S]-GTPγS, histamine at EC80; read-out: average pKi (pKb) at H3 (converted)
T2 construct: expressed in transfected cells; host or cells: CHO K1 cells with pSwitch/pGeneH3 (GeneSwitch, mifepristone-induced), clone 3H3; membrane preparation
Outline: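 Membranes came from CHO K1 cells with mifepristone-inducible (10 nM, 18 h) human H3 receptor expression, clone 3H3. Test compounds in DMSO were combined with WGA polystyrene LeadSeeker SPA beads, membranes and GDP.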

human H1 receptor [2] = molecular target: T1, human H1 receptor; assay: Histamine H1 functional antagonist assay: determination of functional pKi values (FLIPR); type: cell-based; conditions: CHO cells expressing human H1 receptor, histamine at EC80, read-out: average pKi (pKb) at H1 (converted)
Outline: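 Functional affinities come from concentration-effect curves of inhibited histamine (EC80) calcium responses read by FLIPR. Compound sat 30 min at 37° C on Fluo-4-loaded CHO cells stably expressing human H1 receptor, in probenecid-containing Tyrodes buffer, pH 7.40.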

T1 sequence (P35367 whole entry): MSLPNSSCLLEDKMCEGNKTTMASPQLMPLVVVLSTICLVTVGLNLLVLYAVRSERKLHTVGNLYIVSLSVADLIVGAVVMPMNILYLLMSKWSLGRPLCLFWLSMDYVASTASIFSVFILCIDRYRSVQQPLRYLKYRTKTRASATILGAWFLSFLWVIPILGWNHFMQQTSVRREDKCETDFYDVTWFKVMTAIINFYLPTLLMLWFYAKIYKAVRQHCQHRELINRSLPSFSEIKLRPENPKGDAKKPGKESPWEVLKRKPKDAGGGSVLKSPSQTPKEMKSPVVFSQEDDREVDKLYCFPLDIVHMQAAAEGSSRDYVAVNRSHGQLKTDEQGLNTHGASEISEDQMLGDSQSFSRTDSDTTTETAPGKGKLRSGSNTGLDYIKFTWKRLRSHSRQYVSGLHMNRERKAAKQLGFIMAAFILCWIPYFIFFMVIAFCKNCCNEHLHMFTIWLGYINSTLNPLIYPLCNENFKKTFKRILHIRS
T2 sequence (Q9Y5N1 whole entry, species assumed): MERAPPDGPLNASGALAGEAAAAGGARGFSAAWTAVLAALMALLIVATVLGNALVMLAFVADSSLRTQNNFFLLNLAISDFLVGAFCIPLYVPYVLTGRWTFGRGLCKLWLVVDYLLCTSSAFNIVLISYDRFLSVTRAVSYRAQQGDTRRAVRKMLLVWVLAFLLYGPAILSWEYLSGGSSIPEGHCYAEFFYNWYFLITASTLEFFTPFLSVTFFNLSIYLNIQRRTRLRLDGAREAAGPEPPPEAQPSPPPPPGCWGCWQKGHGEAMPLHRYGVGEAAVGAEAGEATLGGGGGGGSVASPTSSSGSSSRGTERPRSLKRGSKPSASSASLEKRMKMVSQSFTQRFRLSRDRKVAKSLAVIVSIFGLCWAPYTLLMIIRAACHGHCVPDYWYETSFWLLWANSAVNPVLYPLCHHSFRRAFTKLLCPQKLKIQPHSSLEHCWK

`CCCCc1cc(OC2CCN(C[C@H]3CC[C@H](C(=O)N4CCCCC4)CC3)CC2)c2ncccc2c1` [Example 44, 6-Butyl-8-[(1-{[trans-4-(1-piperidinylcarbonyl)cyclohexyl]methyl}-4-piperidinyl)oxy]quinoline] was tested, and the “duration of action compared with azelastine” value (human H1 receptor [1]) was “longer duration of action than azelastine”, the Ki (histamine H3 receptor) was > 316 nM and the Ki (human H1 receptor [2]) was < 10 nM.
